{"source": "patent US20210169690A1", "about": "“Self-Retaining Implantable Drug Delivery Device” (GoldenBiotech, LLC, priority 2019, published 2021)", "format_in_all_cases": "physicochemical", "key": {"[1]": {"assay": "Visual examination of physical appearance and mixing of drug-loaded silicone polymer matrix test samples", "details": "15% and 20% Travoprost test samples", "text": "To test the loading capacity of a silicone elastomer polymer matrix for a prostaglandin analogue, polymer matrix with different amounts and types of a prostaglandin analogue were made and the physical and mechanical properties of the resulting polymerized drug-loaded matrix were characterized (Tables 1-3). These polymer matrix test samples were made by mixing together a prostaglandin analogue, a liquid cyclic vinyl siloxane elastomer, a crosslinker, and a catalyst using a high-speed mixer and then heated the capped container at 70° C. for 24 hours to cure the mixture. A filler, such as a fumed silica, was also used to provide sufficient mechanical strength to the polymerized matrix. In addition, an inhibitor was used to slow the crosslinking reaction to a workable rate. The resulting thin-disc-shaped drug-loaded polymer matrix was allowed to cool to room temperature and then placed in 4° C. for 24 hours to increase stiffness of the material. The physical appearance of each drug-loaded polymer matrix test sample was examined visually and its mechanical properties analyzed using a durometer."}, "[2]": {"assay": "Modified Higuchi plot (2A versus Q^2/T)", "method": "Travoprost and Latanoprost are oily liquids at room temperature whereas Bimatoprost is a solid at room temperature. To determine whether the liquid versus solid phase of these drugs affects their release from the silicone polymer matrix, data was analyzed using an alternative plot based on the Higuchi equation where twice the drug loading value (2A) is plotted on the […] and the average slope of the plot of cumulative drug released squared versus time in hours (Q^2/T) is plotted on the […]."}, "[3]": {"assay": "Release from post-loaded section of the drug delivery device (Example 5)", "method": "A central section of a self-retaining implantable drug delivery device disclosed herein was loaded with Travoprost by cutting a 3 mm section of the device and then placed into 0.200 mL of hexanes for 3 hours. Following this period, the self-retaining implantable drug delivery device was placed immediately into 0.050 mL of a Travoprost stock solution 25 mg/mL in ethanol and allowed to stand overnight. The following day, this section was washed sequentially by dipping into a water bath, followed by a 10% acetonitrile bath. It was dried at 80 C and set to release the following day. The section was allowed to release over a period of 38 days. The loading was determined to be approximately 13 mcg. […] This release profile is predicted by the Higuchi mechanism. This type of loading procedure we term post loading. The loaded section is coated with a poly(p-xylylene) polymer and two tiny holes are place completely through the section. The section is then molded together with the two flanking sections of the stent to form the final product. The release from this modified stent follows a near zero order release in vitro and in vivo in preclinical animal models and clinical studies."}, "[4]": {"assay": "In vitro drug release from silicone polymer matrix test samples in PBS pH 7.4 at 37° C., RPHPLC", "details": "10% Travoprost matrix plug, PARYLENE about 0.68 μm, two 18G depot channels", "method": "To test the controlled release properties of the disclosed drug-loaded silicone polymer matrices, the effects of a coating were examined. In these experiments, test samples were made as described in Example 1 to produce thin-disc-shaped drug-loaded polymer matrix. From this material, test samples were prepared by 1) cutting out rectangular polygons of about 3 mm length, about 1 mm width and about 1 mm height were cut from polymerized drug-loaded material; or 2) cutting out cylindrical plugs of about 3 mm length and having a diameter of about 0.5 mm to about 1 mm. The weight of the test samples were in the range about 0.1 mg to about 4 mg.\nCertain of these cut test samples were then coated using one of three procedures. Cut test samples were coated with a polymer like poly(p-xylylene) (PARYLENE) to a thickness of about 0.10 μm to about 0.95 μm using a vapor phase deposition procedure. Similarly, cut test samples were coated a metal like titanium to a thickness of about 0.10 μm to about 0.95 μm using a vapor phase deposition procedure. Alternatively, cut test samples were physically wrapped with a tape like polytetrafluoroethylene tape and sealed using cyanoacrylate adhesive.\nThe presence of opening in a coated test sample was also examined. In these experiments, coated test samples were punctured to produce opening through the coating layer. From one to four opening were made using the tip of an 18G, 23G, 27G or 31G needle. Two types of opening were produced 1) surface pores which created openings only through the coating layer but left the polymer matrix intact; and 2) depot channels which created a tunnel through the entire coated test sample from one end to the other end.\nTo examine the drug release properties of a test sample, each sample was placed in 2 mL Eppendorf tube containing 1.5 mL of Phosphate Buffered Saline, pH 7.4 (PBS). These tubes were slowly rocked at 37° C. in an incubator. At given time points the PBS was completely removed from the tube and refilled with fresh PBS. An aliquot of the removed PBS was then analyzed by reversed phase HPLC (RPHPLC) to determine the amount of drug released from the test sample during the incubation period. In these experiments, a 10 μL injection of the test sample aliquot was run on an Agilent 1260 Infinity in a reverse phase isocratic mode using UV detection at 210 nm. The column was a Hypersil GOLD Phenyl column, (Dim. (mm) 250×4.6) and the mobile phase was a 1:1 mixture of acetonitrile to aqueous buffer (comprising HPLC grade water mixed with 5 mM ammonium acetate and 0.02% formic acid). The flow rate was 1.2 mL/min and column temperature was 22° C. Peak detection and quantitation was determined by establishing a calibration curve using known amounts of each drug tested and the amount of drug present in the test sample aliquot interpolated from this calibration curve using ChemStation software."}, "[5]": {"assay": "Higuchi equation analysis of drug release data", "method": "In order to ascertain whether the mechanism of drug release was based on diffusion, data obtained from various coated silicone polymer matrices were analyzed using the Higuchi equation. This analysis determined the linearity between the cumulative amount of drug released and the square root of time (SQRT). […] As exemplified FIG. 10, data is plotted as the square root of time taken on the x-axis and the cumulative percentage of drug release on the y-axis."}}, "data": [{"smiles": "CC(C)OC(=O)CCC/C=C\\C[C@@H]1[C@@H](/C=C/[C@@H](O)COc2cccc(C(F)(F)F)c2)[C@H](O)C[C@@H]1O", "note": "[Travoprost]", "values": [{"measurement": "physical examination of test samples", "setting": "[1]", "value": "exhibited more elasticity but had surfaces with tacky attributes and a consistency that was not fully homogeneous"}, {"measurement": "average slope of cumulative drug released squared versus time in hours (Q^2/T)", "setting": "[2]; Loading (A %) 1.0", "value": "0.071 ± 0.001"}, {"measurement": "average slope of cumulative drug released squared versus time in hours (Q^2/T)", "setting": "[2]; Loading (A %) 2.5", "value": "0.388 ± 0.046"}, {"measurement": "average slope of cumulative drug released squared versus time in hours (Q^2/T)", "setting": "[2]; Loading (A %) 5.0", "value": "1.097 ± 0.218"}, {"measurement": "average slope of cumulative drug released squared versus time in hours (Q^2/T)", "setting": "[2]; Loading (A %) 10", "value": "15.821 ± 4.141"}, {"measurement": "relationship of Q^2/T to 2A in modified Higuchi plot", "setting": "[2]; Table 10, FIG. 12 and FIG. 13", "value": "curvilinear relationship"}, {"measurement": "loading", "setting": "[3]; 3 mm device section post loaded from 25 mg/mL Travoprost in ethanol", "value": "approximately 13 mcg"}, {"measurement": "release at 38 days", "setting": "[3]; post-loaded uncoated 3 mm section", "value": 99, "unit": "%"}, {"measurement": "release profile", "setting": "[3]; post-loaded uncoated 3 mm section, over 38 days", "value": "curvilinear/asymptotic profile"}, {"measurement": "Daily Release Rate", "setting": "[4]; day 1", "value": 3.12, "unit": "µg/day"}, {"measurement": "Daily Release Rate", "setting": "[4]; day 5", "value": 2.21, "unit": "µg/day"}, {"measurement": "Daily Release Rate", "setting": "[4]; day 13", "value": 1.15, "unit": "µg/day"}, {"measurement": "Daily Release Rate", "setting": "[4]; day 22", "value": 1.29, "unit": "µg/day"}, {"measurement": "Daily Release Rate", "setting": "[4]; day 26", "value": 1.30, "unit": "µg/day"}, {"measurement": "Daily Release Rate", "setting": "[4]; day 35", "value": 1.16, "unit": "µg/day"}, {"measurement": "Daily Release Rate", "setting": "[4]; day 43", "value": 1.15, "unit": "µg/day"}, {"measurement": "Daily Release Rate", "setting": "[4]; day 54", "value": 1.35, "unit": "µg/day"}, {"measurement": "Daily Release Rate", "setting": "[4]; day 63", "value": 1.16, "unit": "µg/day"}, {"measurement": "Daily Release Rate", "setting": "[4]; day 70", "value": 1.20, "unit": "µg/day"}, {"measurement": "Daily Release Rate", "setting": "[4]; day 83", "value": 0.900, "unit": "µg/day"}, {"measurement": "Daily Release Rate", "setting": "[4]; day 90", "value": 0.882, "unit": "µg/day"}, {"measurement": "Daily Release Rate", "setting": "[4]; day 97", "value": 0.387, "unit": "µg/day"}, {"measurement": "Daily Release Rate", "setting": "[4]; day 105", "value": 0.891, "unit": "µg/day"}, {"measurement": "Daily Release Rate", "setting": "[4]; day 111", "value": 0.798, "unit": "µg/day"}, {"measurement": "Daily Release Rate", "setting": "[4]; day 162", "value": 0.557, "unit": "µg/day"}, {"measurement": "Average Linear Regression r^2 Value, Higuchi Equation Analysis", "setting": "[5]; Drug Loading 2.5%", "value": 0.976}, {"measurement": "Average Linear Regression r^2 Value, Higuchi Equation Analysis", "setting": "[5]; Drug Loading 5%", "value": 0.972}, {"measurement": "Average Linear Regression r^2 Value, Higuchi Equation Analysis", "setting": "[5]; Drug Loading 10%", "value": 0.941}]}]}
